Reference: patent US20260240166A1, “ANTIMICROBIAL AND ANTIVIRAL, BIOLOGICALLY ACTIVE POLYMER COMPOSITES EFFECTIVE AGAINST SARS-COV-2 AND OTHER VIRAL, BACTERIAL AND FUNGAL TARGETS, AND RELATED METHODS, MATERIALS, COATINGS AND DEVICES” (priority 2019, published 2026)

Test: Thermogravimetric analysis (thermal stability)
Assay type: physicochemical
Conditions: thermogravimetric profile (FIG. 6)

benzalkonium chloride
temperature to which stable / at which decomposition begins (TGA): about 200 °C
